According to publication PMC11678425, “(-)-Syringaresinol Exerts an Antidepressant-like Activity in Mice by Noncompetitive Inhibition of the Serotonin Transporter” (Pharmaceuticals, 2024):

How the values were obtained:
hSERT S438T = target: T1, hSERT S438T (Homo sapiens, UniProt P31645, S438T); experiment: ASP^+ binding, hSERT S438T; conditions: S1 site mutant, read-out: SYR IC50 for Binding
T1 construct: forward and reverse primers were used to amplify a full-length hSERT; expressed in transfected cells; host or cells: HeLa
T1 sequence (P31645 whole entry S438T): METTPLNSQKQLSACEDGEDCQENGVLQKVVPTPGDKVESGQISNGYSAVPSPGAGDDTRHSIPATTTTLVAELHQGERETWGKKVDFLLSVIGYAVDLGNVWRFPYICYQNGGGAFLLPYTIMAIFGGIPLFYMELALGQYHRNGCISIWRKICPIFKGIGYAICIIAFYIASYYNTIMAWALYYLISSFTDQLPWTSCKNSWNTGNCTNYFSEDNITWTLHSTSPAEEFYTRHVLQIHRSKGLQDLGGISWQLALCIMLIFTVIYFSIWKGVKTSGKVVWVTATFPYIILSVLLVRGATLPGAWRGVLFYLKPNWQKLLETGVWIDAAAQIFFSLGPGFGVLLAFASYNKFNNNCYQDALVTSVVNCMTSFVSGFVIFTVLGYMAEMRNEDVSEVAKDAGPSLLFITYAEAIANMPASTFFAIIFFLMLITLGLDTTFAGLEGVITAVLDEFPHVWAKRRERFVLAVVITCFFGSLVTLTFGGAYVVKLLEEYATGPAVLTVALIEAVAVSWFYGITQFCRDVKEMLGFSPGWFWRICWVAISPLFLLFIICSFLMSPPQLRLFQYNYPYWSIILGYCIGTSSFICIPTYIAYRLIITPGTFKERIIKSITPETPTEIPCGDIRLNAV

hSERT T583A = target: T2, hSERT T583A (Homo sapiens, UniProt P31645, T583A); experiment: ASP^+ binding, hSERT T583A; conditions: S2 site mutant, read-out: SYR IC50 for Binding
T2 construct: forward and reverse primers were used to amplify a full-length hSERT; expressed in transfected cells; host or cells: HeLa
T2 sequence (P31645 whole entry T583A): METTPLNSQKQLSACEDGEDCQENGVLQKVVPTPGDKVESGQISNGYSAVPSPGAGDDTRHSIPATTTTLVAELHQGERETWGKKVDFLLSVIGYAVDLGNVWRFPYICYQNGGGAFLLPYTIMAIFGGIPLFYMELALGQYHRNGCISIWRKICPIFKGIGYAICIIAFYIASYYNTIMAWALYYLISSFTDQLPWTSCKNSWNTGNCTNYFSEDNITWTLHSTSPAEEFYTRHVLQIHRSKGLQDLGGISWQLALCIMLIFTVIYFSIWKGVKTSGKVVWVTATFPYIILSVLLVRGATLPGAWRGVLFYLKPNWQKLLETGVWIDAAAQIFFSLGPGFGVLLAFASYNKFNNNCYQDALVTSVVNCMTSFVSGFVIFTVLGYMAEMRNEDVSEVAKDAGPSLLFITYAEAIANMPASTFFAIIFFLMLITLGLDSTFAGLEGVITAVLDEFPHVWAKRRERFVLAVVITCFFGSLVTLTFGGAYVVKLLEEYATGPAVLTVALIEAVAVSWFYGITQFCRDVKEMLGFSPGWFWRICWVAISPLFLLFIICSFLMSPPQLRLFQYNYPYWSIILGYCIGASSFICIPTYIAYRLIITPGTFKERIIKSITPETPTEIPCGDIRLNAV

CUMS mice [1] = experiment: Forced swim test (FST) in CUMS mice; format: in vivo, mouse
Protocol: (§1) C57BL/6 adult (6–8 weeks, body weight, 18–22 g) male mice were maintained and handled in a standard condition at the Experimental Animal Center of Southern Medical University (Guangzhou, China). Animal use was approved by the Animal Use and Care Committee of Southern Medical University (approved code: SMUL2021177, approved date: 12 December 2021). The CUMS procedure was carried out according to a protocol described previously. Except for those in the control group, mice were randomly exposed to two mild unpredictable stressors per day for 3 weeks. The stressors included water deprivation, restraint, tilted cage, wet/no bedding, rotation, peppermint, noise, and inverted light off/on. Mice in the control group were group housed without any stressors throughout the procedure. […] NSFT was performed after 16 h food deprivation, as described previously. The mouse was placed in an open field (24 × 40 × 14 cm), where a new chow was put in the center, and the latency time to bite food was counted over 10 min. Home cage feeding within a 20 min period was measured after the test. FST was carried out according to a protocol described previously. The mouse was placed into a beaker (Bomex, Beijing, China) with a height of 18 cm filled with water (22 ± 1 °C) for 6 min. The immobile time was measured during minutes 2–6. TST was performed according to a previous description. The mouse was suspended from a hook that hung from a suspension bar by placing a piece of adhesive tape on its tail about 1 cm away from the tip. The immobile time during minutes 2–6 was measured.

CUMS mice [2] = experiment: Home cage food consumption after NSFT; format: in vivo, mouse; conditions: mouse, in vivo
Protocol: Figure 6 Animal behavioral tests. (A) Schematic illustration of animal behavioral test timeline. Mice were exposed to CUMS for 3 weeks, as described in Section 4. […] For the CUMS group, saline was given instead of drugs. NSFT was performed after 16–18 h food deprivation, followed by FST and TST. (B) NSFT. The latency time to food in NSFT was counted. (C) Home cage food consumption. Food consumed by individual mice in the home cage (g) within a 20 min period was measured after NSFT. (D) FST. The immobility time during a 2 to 6 min period in FST was measured. (E) TST. The immobility time during 2 to 6 min was counted. n = 8–10 mice/group. Bars represent the mean ± SEM. * p < 0.05 compared with the control or CUMS group, respectively, by one-way ANOVA followed by post hoc tests. ns, not significant.
NSFT was performed after 16 h food deprivation, as described previously. The mouse was placed in an open field (24 × 40 × 14 cm), where a new chow was put in the center, and the latency time to bite food was counted over 10 min. Home cage feeding within a 20 min period was measured after the test. FST was carried out according to a protocol described previously. The mouse was placed into a beaker (Bomex, Beijing, China) with a height of 18 cm filled with water (22 ± 1 °C) for 6 min. The immobile time was measured during minutes 2–6. […] The immobile time during minutes 2–6 was measured.

hSERT D328A = target: T3, hSERT D328A (Homo sapiens, UniProt P31645, D328A); experiment: ASP^+ binding, hSERT D328A; conditions: S2 site mutant, read-out: SYR IC50 for Binding
T3 construct: forward and reverse primers were used to amplify a full-length hSERT; expressed in transfected cells; host or cells: HeLa cells, transient, pcDNA3.1
T3 sequence (P31645 whole entry D328A): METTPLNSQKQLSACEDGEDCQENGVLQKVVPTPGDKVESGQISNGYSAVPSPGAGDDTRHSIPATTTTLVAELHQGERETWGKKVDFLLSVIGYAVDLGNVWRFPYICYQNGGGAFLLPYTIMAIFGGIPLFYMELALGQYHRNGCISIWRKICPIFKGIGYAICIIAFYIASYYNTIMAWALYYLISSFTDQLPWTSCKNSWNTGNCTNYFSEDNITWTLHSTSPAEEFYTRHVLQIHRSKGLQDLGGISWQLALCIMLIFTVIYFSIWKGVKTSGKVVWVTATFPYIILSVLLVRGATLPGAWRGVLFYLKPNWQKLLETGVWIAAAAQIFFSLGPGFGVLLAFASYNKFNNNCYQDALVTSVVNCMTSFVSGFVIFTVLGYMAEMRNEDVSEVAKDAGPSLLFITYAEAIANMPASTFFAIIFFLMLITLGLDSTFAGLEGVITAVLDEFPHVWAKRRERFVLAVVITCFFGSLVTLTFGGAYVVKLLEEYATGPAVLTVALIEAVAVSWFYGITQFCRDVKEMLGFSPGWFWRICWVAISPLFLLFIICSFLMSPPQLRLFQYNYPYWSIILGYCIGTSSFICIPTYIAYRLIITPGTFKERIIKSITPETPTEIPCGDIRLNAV

hSERT L563A = target: T4, hSERT L563A (Homo sapiens, UniProt P31645, L563A); experiment: APP^+ uptake, hSERT L563A; format: cell-based; conditions: S2 site mutant, read-out: SYR IC50 for Transport
T4 construct: forward and reverse primers were used to amplify a full-length hSERT; expressed in transfected cells; host or cells: HeLa
T4 sequence (P31645 whole entry L563A): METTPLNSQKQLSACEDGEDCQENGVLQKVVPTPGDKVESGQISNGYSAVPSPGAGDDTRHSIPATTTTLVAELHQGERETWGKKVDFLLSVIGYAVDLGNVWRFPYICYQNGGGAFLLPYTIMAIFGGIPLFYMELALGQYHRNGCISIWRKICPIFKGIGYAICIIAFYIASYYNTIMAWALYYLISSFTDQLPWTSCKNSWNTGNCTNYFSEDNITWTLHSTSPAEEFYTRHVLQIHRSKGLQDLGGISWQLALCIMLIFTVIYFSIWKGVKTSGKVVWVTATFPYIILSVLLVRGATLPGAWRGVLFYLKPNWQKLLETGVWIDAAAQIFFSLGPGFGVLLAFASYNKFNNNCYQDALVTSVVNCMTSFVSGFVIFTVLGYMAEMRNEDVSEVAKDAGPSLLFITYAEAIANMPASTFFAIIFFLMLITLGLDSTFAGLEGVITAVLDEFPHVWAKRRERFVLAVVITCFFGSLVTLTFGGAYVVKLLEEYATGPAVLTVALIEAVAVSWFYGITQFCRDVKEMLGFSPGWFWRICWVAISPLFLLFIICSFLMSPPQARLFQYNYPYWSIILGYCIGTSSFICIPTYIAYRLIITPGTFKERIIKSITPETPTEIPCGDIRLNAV

hSERT I172F = target: T5, hSERT I172F (Homo sapiens, UniProt P31645, I172F); experiment: ASP^+ binding, hSERT I172F; conditions: S1 site mutant, read-out: SYR IC50 for Binding
T5 construct: forward and reverse primers were used to amplify a full-length hSERT; expressed in transfected cells; host or cells: HeLa

hSERT P561G = target: T6, hSERT P561G (Homo sapiens, UniProt P31645, P561G); experiment: ASP^+ binding, hSERT P561G; conditions: S2 site mutant, read-out: SYR IC50 for Binding
T6 construct: forward and reverse primers were used to amplify a full-length hSERT; expressed in transfected cells; host or cells: HeLa

hSERT Y95F = target: T7, hSERT Y95F (Homo sapiens, UniProt P31645, Y95F); experiment: ASP^+ binding, hSERT Y95F; conditions: S1 site mutant, read-out: SYR IC50 for Binding
T7 construct: forward and reverse primers were used to amplify a full-length hSERT; expressed in transfected cells; host or cells: HeLa

SERT S277C/X5C = experiment: Cysteine accessibility, cytoplasmic pathway: MTSEA reactivity with S277C/X5C; format: cell-based; conditions: 10 μM ligand, digitonin-permeabilized cells, compared with the control
hSERT E494Q [3] = target: T8, hSERT E494Q (Homo sapiens, UniProt P31645, E494Q); experiment: ASP^+ binding, hSERT E494Q; conditions: S2 site mutant, read-out: SYR IC50 for Binding
T8 construct: forward and reverse primers were used to amplify a full-length hSERT; expressed in transfected cells; host or cells: HeLa cells, transient, pcDNA3.1
T8 sequence (P31645 whole entry E494Q): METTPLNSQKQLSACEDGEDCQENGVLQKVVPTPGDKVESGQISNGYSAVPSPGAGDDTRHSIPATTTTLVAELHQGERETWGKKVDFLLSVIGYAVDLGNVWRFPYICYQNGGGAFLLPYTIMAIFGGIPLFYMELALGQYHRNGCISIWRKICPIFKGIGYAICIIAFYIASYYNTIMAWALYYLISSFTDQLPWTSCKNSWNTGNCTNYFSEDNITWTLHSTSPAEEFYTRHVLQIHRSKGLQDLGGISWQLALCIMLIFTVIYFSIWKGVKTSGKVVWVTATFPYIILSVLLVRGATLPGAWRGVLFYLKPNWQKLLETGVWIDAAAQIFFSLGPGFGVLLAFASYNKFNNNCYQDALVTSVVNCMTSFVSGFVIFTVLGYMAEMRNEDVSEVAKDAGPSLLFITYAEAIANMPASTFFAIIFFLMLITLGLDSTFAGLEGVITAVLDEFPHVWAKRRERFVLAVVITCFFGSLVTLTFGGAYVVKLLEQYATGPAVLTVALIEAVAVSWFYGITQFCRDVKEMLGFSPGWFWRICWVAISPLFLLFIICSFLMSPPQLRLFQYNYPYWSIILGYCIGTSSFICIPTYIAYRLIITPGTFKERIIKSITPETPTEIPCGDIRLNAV

SERT Y107C/C109A = experiment: Cysteine accessibility, extracellular pathway: MTSET reactivity with Y107C/C109A; format: cell-based; conditions: 10 μM ligand, compared with the control (MTSET alone)
hSERT F556A = target: T9, hSERT F556A (Homo sapiens, UniProt P31645, F556A); experiment: ASP^+ binding, hSERT F556A; conditions: S2 site mutant, read-out: SYR IC50 for Binding
T9 construct: forward and reverse primers were used to amplify a full-length hSERT; expressed in transfected cells; host or cells: HeLa cells, transient, pcDNA3.1

CUMS mice [4] = experiment: Novelty suppressed feeding test (NSFT) in CUMS mice; format: in vivo, mouse
Protocol: as §1

hSERT I327A = target: T10, hSERT I327A (Homo sapiens, UniProt P31645, I327A); experiment: APP^+ uptake, hSERT I327A; format: cell-based; conditions: S2 site mutant, read-out: SYR IC50 for Transport
T10 construct: forward and reverse primers were used to amplify a full-length hSERT; expressed in transfected cells; host or cells: HeLa cells, transient, pcDNA3.1
T10 sequence (P31645 whole entry I327A): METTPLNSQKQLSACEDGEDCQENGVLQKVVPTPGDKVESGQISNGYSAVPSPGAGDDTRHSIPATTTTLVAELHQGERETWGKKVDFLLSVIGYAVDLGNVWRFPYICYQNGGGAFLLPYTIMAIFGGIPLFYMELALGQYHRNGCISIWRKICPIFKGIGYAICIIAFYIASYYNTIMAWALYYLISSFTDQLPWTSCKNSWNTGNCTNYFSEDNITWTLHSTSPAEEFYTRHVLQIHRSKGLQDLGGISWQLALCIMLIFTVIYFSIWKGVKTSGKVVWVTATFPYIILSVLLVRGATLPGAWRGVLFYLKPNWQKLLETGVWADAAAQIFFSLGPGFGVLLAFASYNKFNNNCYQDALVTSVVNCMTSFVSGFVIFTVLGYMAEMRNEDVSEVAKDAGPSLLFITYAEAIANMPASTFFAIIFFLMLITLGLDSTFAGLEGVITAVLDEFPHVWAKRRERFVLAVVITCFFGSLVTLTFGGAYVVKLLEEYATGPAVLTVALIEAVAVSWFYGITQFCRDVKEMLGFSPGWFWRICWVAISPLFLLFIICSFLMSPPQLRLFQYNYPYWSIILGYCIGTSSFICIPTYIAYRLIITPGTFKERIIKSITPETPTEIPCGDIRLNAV

hSERT S559A = target: T11, hSERT S559A (Homo sapiens, UniProt P31645, S559A); experiment: APP^+ uptake, hSERT S559A; format: cell-based; conditions: S2 site mutant, read-out: SYR IC50 for Transport
T11 construct: forward and reverse primers were used to amplify a full-length hSERT; expressed in transfected cells; host or cells: HeLa cells, transient, pcDNA3.1
T11 sequence (P31645 whole entry S559A): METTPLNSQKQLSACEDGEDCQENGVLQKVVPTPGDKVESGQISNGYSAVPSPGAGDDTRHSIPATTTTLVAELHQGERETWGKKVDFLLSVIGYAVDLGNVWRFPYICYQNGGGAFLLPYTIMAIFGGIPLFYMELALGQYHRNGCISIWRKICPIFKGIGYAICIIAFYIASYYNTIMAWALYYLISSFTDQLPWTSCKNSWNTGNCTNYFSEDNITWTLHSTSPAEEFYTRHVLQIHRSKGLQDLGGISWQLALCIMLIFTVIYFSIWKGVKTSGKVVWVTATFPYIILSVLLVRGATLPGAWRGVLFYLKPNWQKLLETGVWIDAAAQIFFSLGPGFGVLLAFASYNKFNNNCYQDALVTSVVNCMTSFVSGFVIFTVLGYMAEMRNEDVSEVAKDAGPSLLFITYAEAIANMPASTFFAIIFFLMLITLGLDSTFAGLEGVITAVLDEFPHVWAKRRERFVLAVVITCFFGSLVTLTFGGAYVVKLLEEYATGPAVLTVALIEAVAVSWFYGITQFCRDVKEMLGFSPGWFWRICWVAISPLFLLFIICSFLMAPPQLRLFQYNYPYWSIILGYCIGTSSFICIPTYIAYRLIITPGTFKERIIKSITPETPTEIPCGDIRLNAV

hSERT E494Q [5] = target: T8, hSERT E494Q; experiment: APP^+ uptake, hSERT E494Q; format: cell-based; conditions: S2 site mutant, read-out: SYR IC50 for Transport
hSERT R564A = target: T12, hSERT R564A (Homo sapiens, UniProt P31645, R564A); experiment: APP^+ uptake, hSERT R564A; format: cell-based; conditions: S2 site mutant, read-out: SYR IC50 for Transport
T12 construct: forward and reverse primers were used to amplify a full-length hSERT; expressed in transfected cells; host or cells: HeLa

hSERT Q562N = target: T13, hSERT Q562N (Homo sapiens, UniProt P31645, Q562N); experiment: APP^+ uptake, hSERT Q562N; format: cell-based; conditions: S2 site mutant, read-out: SYR IC50 for Transport
T13 construct: forward and reverse primers were used to amplify a full-length hSERT; expressed in transfected cells; host or cells: HeLa

hSERT T497A = target: T14, hSERT T497A (Homo sapiens, UniProt P31645, T497A); experiment: APP^+ uptake, hSERT T497A; format: cell-based; conditions: S2 site mutant, read-out: SYR IC50 for Transport
T14 construct: forward and reverse primers were used to amplify a full-length hSERT; expressed in transfected cells; host or cells: HeLa cells, transient, pcDNA3.1
T14 sequence (P31645 whole entry T497A): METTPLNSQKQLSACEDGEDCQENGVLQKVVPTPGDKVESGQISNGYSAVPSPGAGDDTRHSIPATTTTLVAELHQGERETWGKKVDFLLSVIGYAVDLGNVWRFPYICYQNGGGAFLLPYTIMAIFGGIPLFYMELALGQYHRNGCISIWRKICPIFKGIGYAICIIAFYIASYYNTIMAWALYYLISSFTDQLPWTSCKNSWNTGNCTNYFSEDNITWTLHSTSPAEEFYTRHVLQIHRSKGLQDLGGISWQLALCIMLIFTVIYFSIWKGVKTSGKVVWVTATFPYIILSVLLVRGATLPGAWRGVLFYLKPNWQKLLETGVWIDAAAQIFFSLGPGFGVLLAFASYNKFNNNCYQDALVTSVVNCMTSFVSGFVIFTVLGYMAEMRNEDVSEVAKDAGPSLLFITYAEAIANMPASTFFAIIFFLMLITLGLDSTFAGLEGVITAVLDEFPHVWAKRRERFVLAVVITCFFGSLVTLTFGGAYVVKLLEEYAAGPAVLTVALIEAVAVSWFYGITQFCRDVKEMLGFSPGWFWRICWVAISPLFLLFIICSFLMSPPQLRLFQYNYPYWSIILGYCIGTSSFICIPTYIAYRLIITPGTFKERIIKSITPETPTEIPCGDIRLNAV

[6] = 5 mg/kg, i.p., once per day day 7 to 21

## COc1cc([C@@H]2OC[C@@H]3[C@H]2CO[C@H]3c2cc(OC)c(O)c(OC)c2)cc(OC)c1O [SYR, (-)-syringaresinol]
hSERT S438T
  IC50: 2.32 ± 0.02 µM
hSERT T583A
  IC50: 30.9 ± 0.93 µM
CUMS mice [1]; [6]
  reversal of behavioral abnormalities in FST: did not exhibit a significant response
CUMS mice [1]; 10 or 20 mg/kg (i.p.)
  effect in FST: remarkable antidepressant-like effects
CUMS mice [2]
  home cage food consumption: little effect
hSERT D328A
  IC50: 39.2 ± 0.78 µM
hSERT L563A
  IC50: 6.28 ± 0.57 µM
hSERT I172F
  IC50: 1.51 ± 0.04 µM
hSERT P561G
  IC50: 131 ± 5.72 µM
hSERT Y95F
  IC50: 1.21 ± 0.01 µM
SERT S277C/X5C
  rate constant of MTSEA reactivity with S277C/X5C: decreased
hSERT E494Q [3]
  IC50: 9.77 ± 0.78 µM
SERT Y107C/C109A
  rate constant of MTSET reactivity with Y107C/C109A: markedly increased
hSERT F556A
  IC50: 21.6 ± 1.2 µM
CUMS mice [4]; [6]
  reversal of behavioral abnormalities in NSFT: did not exhibit a significant response
CUMS mice [4]; 10 or 20 mg/kg (i.p.)
  effect in NSFT: remarkable antidepressant-like effects
hSERT I327A
  IC50: 19.5 ± 1.02 µM
hSERT S559A
  IC50: 19.5 ± 1.46 µM
hSERT E494Q [5]
  IC50: 12 ± 2.17 µM
hSERT R564A
  IC50: 14.6 ± 1.59 µM
hSERT Q562N
  IC50: 48.8 ± 4.51 µM
hSERT T497A
  IC50: 10.6 ± 2.4 µM
